Assays:
T1 lipase = assay: Lipase stability test: residual activity of T1 lipase after incubation with detergent components; format: biochemical, Geobacillus zalihae strain T1; settings: for Stability of T1 lipase in the component (in words): incubation in 0.2% (w/v) component, 60° C., 30 min
Description: The compatibility of the T1 lipase with the other components of the formulated detergent was evaluated by incubating the enzyme in 0.2% (w/v) of those components, i.e., surfactants, bleaches, and alkalinity agents in a water bath (Protech, Malaysia) at 60° C. for 30 min. After 30 min, the enzyme was assayed for its residual activity.
J Am Oil Chem Soc. 63(1): p. 89-92]. A cupric acetate pyridine reagent was prepared by mixing 5% (w/v) copper (II) acetate with DI water and adjusting the solution pH to 6.1 with pyridine. The substrate emulsion used consisted of olive oil/50 mM of Glycine-NaOH buffer at pH 9.0 (1:1), which was homogenized using a homogenizer (Heidolph, Germany). […] After 30 min, the reaction was stopped by adding 5 ml isooctane and 1 ml 6 N HCl, and the mixture was vortexed for 30 s and left for 15 min. 4 ml of the upper layer of the mixture, which contained the fatty acids, was transferred to a test tube containing 1 ml of the cupric acetate pyridine reagent, and the mixture was vortexed for 30 s and left for 1 hour. The color of the solution was then evaluated colorimetrically by reading the OD using the Ultraspec 2100 Pro spectrophotometer (Amersham Bioscience, Sweden) at 715 nm. All assays were done in triplicates. 1 unit (U) of lipase activity was defined as the rate of 1 μmol of fatty acid released per minute under standard assay conditions.

[1] = Resulting pH of the alkalinity agents in solution; format: physicochemical; settings: resulting pH of the alkalinity agent in solution
[2] = T1 lipase residual activity after 30 min at 60° C. in 0.2% (w/v) surfactant or bleach, w/o control = 100
[3] = T1 lipase residual activity after 30 min at 60° C. in 0.2% (w/v) alkalinity agent, Glycine-NaOH control = 100

In the case of Polyethylene glycol 300 [PEG 300], the “Relative activity (%)” value (T1 lipase; [2]) is reported as 61%.
For `O=C([O-])[O-].O=C([O-])[O-].OO.OO.OO.[Na+].[Na+].[Na+].[Na+]` [Sodium percarbonate, sodium percarbonate], the “Relative activity (%)” value (T1 lipase; [2]) was 0.3% and the “Stability of T1 lipase in the component (in words)” value (from here on “Stability of T1 lipase”) (T1 lipase) was “strongly destabilized”.
For `O=C([O-])O.[Na+]` [Sodium bicarbonate, sodium bicarbonate], the pH [1] was 8.63 and the “Relative activity (%)” value (T1 lipase; [3]) was 94%.
In the case of `O=C([O-])CC(O)(CC(=O)[O-])C(=O)[O-].[Na+].[Na+].[Na+]` [Sodium citrate, sodium citrate], the pH [1] is reported as 8.30, the “Relative activity (%)” value (T1 lipase; [3]) is reported as 48% and the “Stability of T1 lipase” value (T1 lipase) is reported as “did not greatly affect the stability”.
With `CCCCCCCCCCCCOS(=O)(=O)[O-].[Na+]` [SDS, sodium dodecyl sulfate] the “Relative activity (%)” value (T1 lipase; [2]) was 14% and the “Stability of T1 lipase” value (T1 lipase) was “destabilized”.
For `O=P(O)(O)OP(=O)(O)OP(=O)(O)O` [Sodium tripolyphosphate, sodium tripolyphosphate], the pH [1] was 9.60, the “Relative activity (%)” value (T1 lipase; [3]) was 0% and the “Stability of T1 lipase” value (T1 lipase) was “lowest residual activities”.
For `CCCCCCCCCCCCCCCC[N+](C)(C)C.[Br-]` [CTAB, cetyl trimethylammonium bromide], the “Relative activity (%)” value (T1 lipase; [2]) was 1.9% and the “Stability of T1 lipase” value (T1 lipase) was “strongly destabilized”.
For `CCCCCCCC/C=C\CCCCCCCC(=O)OCCOCC(OCCO)C1OCC(OCCO)C1OCCO` (centres unmarked) [Tween 80, polysorbate 80], the “Relative activity (%)” value (T1 lipase; [2]) was 98% and the “Stability of T1 lipase” value (T1 lipase) was “highest stability”.
In the case of `O=C([O-])[O-].[Na+].[Na+]` [Sodium carbonate, sodium carbonate], the pH [1] is reported as 10.84, the “Relative activity (%)” value (T1 lipase; [3]) is reported as 1% and the “Stability of T1 lipase” value (T1 lipase) is reported as “lowest residual activities”. For the same molecule, the “Stability of T1 lipase” value (T1 lipase; listed as carbonate) was “greatly destabilized”.
For sodium perborate, the “Relative activity (%)” value (T1 lipase; [2]) was 3.4% and the “Stability of T1 lipase” value (T1 lipase) was “strongly destabilized”.

Reference: patent US10196588B2, “Detergent formulation for dishwashing machine” (Universiti Putra Malaysia (UPM), priority 2012, dated 2019)
